Measured values: patent US5632988A, “Polypeptide inhibitors of gamma interferon” (Schering Corporation, priority 1992, dated 1997)
Ends that are not written are not given here.

T1: gamma interferon receptors on Daudi cells (Homo sapiens, UniProt P15260)
T1 construct: host or cells: Daudi cells (human B lymphoblast, Burkitt lymphoma)
T1 sequence (P15260 18-489): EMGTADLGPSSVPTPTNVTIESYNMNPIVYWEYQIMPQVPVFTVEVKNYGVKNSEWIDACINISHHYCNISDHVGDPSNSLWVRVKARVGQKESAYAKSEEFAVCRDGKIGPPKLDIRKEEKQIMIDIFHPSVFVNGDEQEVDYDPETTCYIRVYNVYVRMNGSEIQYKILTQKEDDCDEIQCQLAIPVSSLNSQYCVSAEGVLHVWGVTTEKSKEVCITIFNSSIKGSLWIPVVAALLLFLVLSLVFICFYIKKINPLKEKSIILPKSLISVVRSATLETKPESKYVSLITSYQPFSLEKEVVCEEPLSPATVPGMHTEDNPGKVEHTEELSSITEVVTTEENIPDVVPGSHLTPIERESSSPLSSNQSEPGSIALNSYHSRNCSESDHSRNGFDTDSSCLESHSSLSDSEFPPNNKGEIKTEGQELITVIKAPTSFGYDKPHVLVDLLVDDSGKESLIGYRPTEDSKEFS

B1: Recombinant human gamma interferon D: recombinant human gamma interferon D prepared from transformed E. coli, stimulus in antiviral and HLA-DR assays (protein, UniProt P01579 24-161, looked up)
Interferon gamma: QDPYVKEAENLKKYFNAGHSDVADNGTLFLGILKNWKEESDRKIMQSQIVSFYFKLFKNFKDDQSIQKSVETIKEDMNVKFFNSNKKKRDDFEKLTNYSVTDLNVQRKAIHELIQVMAELSPAAKTGKRKRSQMLFRG
modifications: E. coli recombinant
notes: recombinant human gamma interferon D prepared from transformed E. coli, stimulus in antiviral and HLA-DR assays

Columns and labels:
[1] = target: T1, gamma interferon receptors on Daudi cells; assay: Inhibition of the binding of 125I-recombinant human gamma interferon to Daudi cells (radioligand-receptor assay); settings: for inhibition of the binding of the labeled interferon (in words; type of inhibition): FIGS. 1-4; for Ki: specific binding of 125I-recombinant human gamma interferon to Daudi cells, 2 hours at 4° C., Cheng et al. method
Method: The receptor assay employed a standard mixture of 6×10^5 Daudi cells in 1 ml of binding medium (RPMI 1640 medium, 10% fetal bovine serum, 0.02% sodium azide) containing 200,000 cpm of the labeled interferon. Controls additionally contained 1 μg of unlabeled interferon to determine nonspecific binding. Assays were carried out by adding 0.1 ml aliquots of binding medium with or without varying amounts of a potentially inhibitory polypeptide or protein to the standard mixtures, and incubating the combined mixtures for 2 hours at 4° C.
Following the incubation, the cells were pelleted by centrifugation at 13,000× g for 30 seconds at 4° C, and the supernatants were discarded. The cells were resuspended in 0.2 ml of fresh binding medium without labeled interferon at 4° C., after which the cells were centrifuged at 13,000× g for 2 minutes through a layer of dibutyl phthalate and dioctyl phthalate [0.2 ml of a 1:1 (vol/vol) mixture] to remove residual labeled interferon that was not specifically bound. Inhibition constants (Ki) were calculated according to the method of Cheng et al. [Biochem. Pharmacol. 22:3099 (1973)], in which [formula] where [L] is the ligand concentration and IC50 is the concentration of inhibitor required to decrease binding by 50%.

[2] = system: antiviral effects of recombinant human gamma interferon D; assay: Inhibition of antiviral effects of recombinant human gamma interferon D on human diploid foreskin cells challenged with encephalomyocarditis virus (CPE scoring); format: cell-based
Method: Control Medium A, various dilutions in Medium A of recombinant human gamma Interferon D in the presence of a fixed concentration of polypeptide No. I, or various dilutions of Medium A of polypeptide No. III in the presence of a fixed concentration of the interferon were pipetted in 0.1 ml total volumes into the wells of 96-well flat bottom microtiter plates.
Aliquots of a suspension of human diploid foreskin cells (0.1 ml, 3.5×10^5 cells/ml) in Medium A were pipetted into the wells of the microtiter plates, and the plates were incubated for 4 hours in a 37° C., 5% CO2 incubator. […]
A 0.025-0.05 aliquot of a solution of crystal violet stain (Sigma Chemical Co., St. Louis, Mo.; 0.485% in an aqueous solution containing 3.2% formaldehyde and 32.3% 95% ethanol) was added to each well, and the plates were allowed to stand for 30 minutes for color development. The stain solution was removed and the wells were washed at least three times with distilled water, after which the plates were scored for CPE with the aid of a fluorescent light viewer.
CPE was graded semi-quantitatively on a scale of 0 to 4, with grade O CPE corresponding to a complete absence of cell lysis as measured by cell staining with crystal violet and grade 4 CPE corresponding to total cell lysis and lack of staining.

[3] = system: murine encephalomyocarditis virus; assay: Antiviral activity assay, human diploid foreskin cells infected with murine encephalomyocarditis virus (Rubinstein et al.); format: cell-based
From the text: It also is a potent inducer of the maturational differentiation of pro-monocytes to premacrophages. […] 37:755 (1981)]. […] 132:240 (1984)].

Row | Molecule | inhibition of the binding of the labeled interferon (in words; type of inhibition) ([1]; Daudi cells) | Ki [1] [nM] | other results
1 | AKKLSKDRMKKYMARRKWQKTGHAV [Polypeptide I] | – | – | Kd of labeled interferon in the presence of polypeptide (Scatchard analysis) ([1]; 5 μM polypeptide, Daudi cells): marked increase
2 | poly(D-lysine) | strong competitive inhibitors | 190 | –
3 | poly(L-glutamic acid) | – | 290 | –
4 | poly(L-lysine) | strong competitive inhibitors | 11000 | –
5 | protamine sulfate | – | 1100 | –
6 | B1 | – | – | CPE grade ([2]; interferon alone, 30 pM, scale 0 to 4): 2; cell protection / CPE ([2]; interferon alone, 1,200 pM): complete cell protection; antiviral specific activity [3]: about 4×10^6 units/mg
